Here are results for 26 sequences from US11578110B2, “Compounds for inducing tissue formation and uses thereof” (HISTIDE AG, priority 2015, dated 2023).

No end group written: not given here.

The first test deals with hMSCs. The test is described as follows: STRO-1 stemness marker expression in hMSCs (immunostaining, ImageJ quantification). The class given is cell-based, Human. The following applies: SEQ ID NO: 1 to 49 tested in combination with a bioactive carrier (titanium, ceramics, PEEK, hydrogel, etc.). Here is the method: The cells were first fixed for 20 min with 4% paraformaldehyde/PBS at 4° C. After fixation, the cells were permeabilized in PBS containing 1% Triton X-100 for 15 min. Runx2, Osterix, Stro-1, Vinculin, Phalloidin, Osteopontin, Sox2, Sox9 antibodies were visualized by treating the cells with 1% (v/v) specific monoclonal antibodies for 1 hour at 37° C. Then the samples were incubated with Alexa fluor® 568 or 647 (F(ab′)2 fragment of IgG(H+L)) during 30 min at room temperature. The cell nuclei were counterstained in 20 ng/mL DAPI for 10 min at room temperature.
For this type of quantification the freeware image analysis ImageJ® software was used. The raw image was first converted to an 8-bit file, and then the unsharp mask feature was used (settings 1:0.2) to remove the image background (rolling ball radius 10). After smoothing, the resulting image, which appears similar to the original photomicrograph but with minimal background, was then converted to a binary image by setting a threshold. Threshold values were determined empirically by selecting a setting, which gave the most accurate binary image for a subset of randomly selected photomicrographs. The cell area was determined by manual delineation on raw fluorescent images. Total contact area and mean contact area per cell were calculated by “analyse particles” in ImageJ®. A minimum of 30 cells per condition were analyzed. Stro-1, CD-34+, and CD-105 expressions were determined using this procedure.
hMSCs were cultured on conventional cell culture plastic plates with or without the presence in the cell culture media of different GFR-binding compounds as defined hereins (SEQ ID NO: 50 to 104) in solution. […] This was probed by Stro-1 immunostaining after cell fixation as described in the Methods section. The quantification of Stro-1 positive contact numbers and areas was performed as described in the Methods section. A minimum of 30 cells per condition were analyzed.
RMSD values are always calculated for a GFR-binding peptide sequence exempt from any bioactive-carrier-affinity-containing group as defined herein (e.g. cysteine, WWFWG, GTPGP, etc. . . . ). When needed i.e. when attachment to a bioactive carrier is contemplated, the bioactive-carrier-affinity-containing group is then present in the GFR-binding compound when it is biologically tested. Using the method detailed in the description, the RMSD of 57 previously reported peptide sequences have been determined (Table 6) and correlated with the expression of STRO-1 after grafted on a PET surface via a procedure as already described above. […] One should note that it is commonly admitted that the expression of STRO-1 in a cell is indicative of a cell that is in a substantially non-differentiated state and the decrease of its expression of at least about 20% is indicative of a cell that has started a processes of differentiation but which may not result in the differentiation of the cell. A decrease of more than 50% would be indicative of the presence of a significant shift towards a differentiated state. A decrease of more than 70% would be indicative of the presence of a very important shift towards a differentiated state. A sustained decrease (e.g. for at least 96 h) of more than 50% or 70% would be indicative of the presence of an even more important shift towards a differentiated state.
Likewise, using the method detailed in the description, the RMSD of 87 GFR-binding peptide sequence representatives of the invention have been determined (Table 7) and correlated with the expression of STRO-1 after grafted on a PET surface via a procedure as already described above. SEQ ID NO: 1 to 49 were tested in combination with a bioactive carrier as defined above in the Examples Section (i.e. titanium, ceramics, PEEK, hydrogel, etc. . . . ), whereas SEQ ID NO: 1143 to 1180 were tested in solution.
GIPEPSSVPEKMSATSVLYY [SEQ ID NO: 7]: the STRO-1 expression came to 22%. For KVGKASSVSQKLEPLTILYY [SEQ ID NO: 10], the STRO-1 expression came to 32%. As to NDEGLESAPTGQNAISVLYF [SEQ ID NO: 5], the STRO-1 expression was 27%.

Regarding ASAAPSSVPAALSPISILYI [SEQ ID NO: 44], the STRO-1 expression came to 15%. In the case of KVGKASSVPTKLSAISMLYL [SEQ ID NO: 20], the STRO-1 expression stood at 19%. Regarding “GTPGPAAPASSSVPARLSAISMLYL (not fully specified) [SEQ ID NO: 35]”, the STRO-1 expression was determined as 19%. Still for that read-out and setting: the value for HVPKPSSVPTKLSPISVLYK [SEQ ID NO: 16] was 23%. In the case of GSAGPSSVPTKMSAISMLYL [SEQ ID NO: 1], the STRO-1 expression is recorded as 21%.

Still in this test, the particulars now being: SEQ ID NO: 1143 to 1180 tested in solution.
Turning to “RVPSTSSTQVKMSAISMLYL (GFR-binding peptide) [SEQ ID NO: 1155]”, the STRO-1 expression came to 17%. In the case of “STPPTSSVSQKMKPLSILYV (GFR-binding peptide) [SEQ ID NO: 1170]”, the STRO-1 expression is 25%. Consider “KIPKASSVSQQLEPISTLYL (GFR-binding peptide) [SEQ ID NO: 1165]”, for which the STRO-1 expression is given as 17%.

On to “RVPSTSSVPEKMEPLTMLYY (GFR-binding peptide) [SEQ ID NO: 1173]”, for which the STRO-1 expression turned out to be 18%. The same measure, in the same setting: the value for “GIPEPSSAPVDMRPVQIRKI (GFR-binding peptide) [SEQ ID NO: 1180]” was 30%; that for “KIPKASSVPAQLEPLPIVYY (GFR-binding peptide) [SEQ ID NO: 1171]” was 28%. For “KIPKASSVPTGGSNITVQIM (GFR-binding peptide) [SEQ ID NO: 1151]”, the STRO-1 expression was determined as 32%.

Still in this test, the particulars now being: grafted on a PET surface.
In the case of “MAAQDEWRDAITLTMGRDLKKVPQHLNAISVIDPVT (Previously reported sequence) [SEQ ID NO: 1124, reference compound]”, the STRO-1 expression is on record as 83%. For “PIIYYVGRNVRVEQLSNMVVRRA (Previously reported sequence) [SEQ ID NO: 1088, reference compound]”, the STRO-1 expression was determined as 98%.

In the case of “VGAAWWLREQGSPINTLAVPA (Previously reported sequence) [SEQ ID NO: 1103, reference compound]”, the STRO-1 expression amounted to 88%.

With “NPGASASPCCVSQDLEPLPIL (Previously reported sequence) [SEQ ID NO: 1098, reference compound]”, the STRO-1 expression is recorded as 86%.

Consider “KPCCAPTQLSAISVLYFDDSSNVILKKYRNMVVRACGCR (Previously reported sequence) [SEQ ID NO: 1141, reference compound]”, for which the STRO-1 expression is 80%. Regarding “SSVPAVCSATSATGPYSTATNTVVVFDVYATTVY (SSVPAVCSATSATGPYSTATNTVWFDVYATTVY; Previously reported sequence) [SEQ ID NO: 1117, reference compound]”, the STRO-1 expression is 91%. “NEVLRFCGIQVPEGDEPLT (Previously reported sequence) [SEQ ID NO: 1094, reference compound]”: the STRO-1 expression was 98%.

On to “VPTKLSPISILYLDKGVVTYKFKYEGMSVAECGCR (Previously reported sequence) [SEQ ID NO: 1108, reference compound]”, for which the STRO-1 expression came to 80%. Regarding “TKPLSSLLFPNWNTTTTPTPPRP (Previously reported sequence) [SEQ ID NO: 1101, reference compound]”, the STRO-1 expression is 91%.

Consider “VPTKLSPISILYKDDMGVPTYKFKYEGMSVAECGCR (Previously reported sequence) [SEQ ID NO: 1109, reference compound]”, for which the STRO-1 expression was determined as 82%. On to “PNYSVPAGNKPLSERE (Previously reported sequence) [SEQ ID NO: 1100, reference compound]”, for which the STRO-1 expression is on record as 95%.
